Reference: ChEMBL document CHEMBL2150993, “Substituted thiazoles VII. Synthesis and antitumor activity of certain 2-(substituted amino)-4-phenyl-1,3-thiazole analogs” (2012)

Key:
Assay type in all cases: functional
[1] = test system: CCRF-CEM; assay: Growth inhibition of human CCRF-CEM cells after 48 hrs by cell counting analysis; details: at 10 µM
[2] = test system: HL-60; assay: Growth inhibition of human HL60 cells after 48 hrs by cell counting analysis; details: at 10 µM
[3] = test system: K562; assay: Growth inhibition of human K562 cells after 48 hrs by cell counting analysis; details: at 10 µM
[4] = test system: RPMI-8226; assay: Growth inhibition of human RPMI8226 cells after 48 hrs by cell counting analysis; details: at 10 µM
[5] = test system: SR; assay: Growth inhibition of human SR cells after 48 hrs by cell counting analysis; details: at 10 µM
[6] = test system: A549; assay: Growth inhibition of human A549 cells after 48 hrs by cell counting analysis; details: at 10 µM
[7] = test system: EKVX; assay: Growth inhibition of human EKVX cells after 48 hrs by cell counting analysis; details: at 10 µM
[8] = test system: HOP-62; assay: Growth inhibition of human HOP62 cells after 48 hrs by cell counting analysis; details: at 10 µM
[9] = test system: HOP-92; assay: Growth inhibition of human HOP92 cells after 48 hrs by cell counting analysis; details: at 10 µM
[10] = test system: NCI-H226; assay: Growth inhibition of human NCI-H226 cells after 48 hrs by cell counting analysis; details: at 10 µM
[11] = test system: NCI-H23; assay: Growth inhibition of human NCI-H23 cells after 48 hrs by cell counting analysis; details: at 10 µM
[12] = Growth inhibition of human NCI-322M cells after 48 hrs by cell counting analysis; details: at 10 µM
[13] = test system: NCI-H522; assay: Growth inhibition of human NCI-H522 cells after 48 hrs by cell counting analysis; details: at 10 µM
[14] = test system: HCC 2998; assay: Growth inhibition of human HCC2998 cells after 48 hrs by cell counting analysis; details: at 10 µM
[15] = test system: HCT-15; assay: Growth inhibition of human HCT15 cells after 48 hrs by cell counting analysis; details: at 10 µM
[16] = test system: HT-29; assay: Growth inhibition of human HT-29 cells after 48 hrs by cell counting analysis; details: at 10 µM
[17] = test system: KM12; assay: Growth inhibition of human KM12 cells after 48 hrs by cell counting analysis; details: at 10 µM
[18] = test system: SW-620; assay: Growth inhibition of human SW620 cells after 48 hrs by cell counting analysis; details: at 10 µM
[19] = test system: SF-268; assay: Growth inhibition of human SF268 cells after 48 hrs by cell counting analysis; details: at 10 µM
[20] = test system: SF-295; assay: Growth inhibition of human SF295 cells after 48 hrs by cell counting analysis; details: at 10 µM
[21] = test system: SF-539; assay: Growth inhibition of human SF539 cells after 48 hrs by cell counting analysis; details: at 10 µM
[22] = test system: SNB-19; assay: Growth inhibition of human SNB19 cells after 48 hrs by cell counting analysis; details: at 10 µM
[23] = test system: SNB-75; assay: Growth inhibition of human SNB75 cells after 48 hrs by cell counting analysis; details: at 10 µM
[24] = test system: U-251; assay: Growth inhibition of human U251 cells after 48 hrs by cell counting analysis; details: at 10 µM
[25] = test system: LOX IMVI; assay: Growth inhibition of human LOXIMVI cells after 48 hrs by cell counting analysis; details: at 10 µM
[26] = test system: Malme-3M; assay: Growth inhibition of human MALME-3M cells after 48 hrs by cell counting analysis; details: at 10 µM
[27] = test system: M14; assay: Growth inhibition of human M14 cells after 48 hrs by cell counting analysis; details: at 10 µM
[28] = test system: MDA-MB-435; assay: Growth inhibition of human MDA-MB-435 cells after 48 hrs by cell counting analysis; details: at 10 µM
[29] = test system: SK-MEL-2; assay: Growth inhibition of human SK-MEL-2 cells after 48 hrs by cell counting analysis; details: at 10 µM
[30] = test system: SK-MEL-28; assay: Growth inhibition of human SK-MEL-28 cells after 48 hrs by cell counting analysis; details: at 10 µM
[31] = test system: SK-MEL-5; assay: Growth inhibition of human SK-MEL-5 cells after 48 hrs by cell counting analysis; details: at 10 µM
[32] = test system: UACC-257; assay: Growth inhibition of human UACC257 cells after 48 hrs by cell counting analysis; details: at 10 µM
[33] = test system: UACC-62; assay: Growth inhibition of human UACC62 cells after 48 hrs by cell counting analysis; details: at 10 µM
[34] = test system: IGROV-1; assay: Growth inhibition of human IGROV1 cells after 48 hrs by cell counting analysis; details: at 10 µM
[35] = test system: OVCAR-3; assay: Growth inhibition of human OVCAR3 cells after 48 hrs by cell counting analysis; details: at 10 µM
[36] = test system: OVCAR-4; assay: Growth inhibition of human OVCAR4 cells after 48 hrs by cell counting analysis; details: at 10 µM
[37] = test system: OVCAR-5; assay: Growth inhibition of human OVCAR5 cells after 48 hrs by cell counting analysis; details: at 10 µM
[38] = test system: OVCAR-8; assay: Growth inhibition of human OVCAR8 cells after 48 hrs by cell counting analysis; details: at 10 µM
[39] = Growth inhibition of human NCI-ADR-RES cells after 48 hrs by cell counting analysis; details: at 10 µM
[40] = test system: SK-OV-3; assay: Growth inhibition of human SKOV3 cells after 48 hrs by cell counting analysis; details: at 10 µM
[41] = test system: ACHN; assay: Growth inhibition of human ACHN cells after 48 hrs by cell counting analysis; details: at 10 µM
[42] = test system: CAKI-1; assay: Growth inhibition of human Caki1 cells after 48 hrs by cell counting analysis; details: at 10 µM
[43] = test system: RXF 393; assay: Growth inhibition of human RXF393 cells after 48 hrs by cell counting analysis; details: at 10 µM
[44] = test system: SN12C; assay: Growth inhibition of human SN12C cells after 48 hrs by cell counting analysis; details: at 10 µM
[45] = test system: TK-10; assay: Growth inhibition of human TK10 cells after 48 hrs by cell counting analysis; details: at 10 µM
[46] = test system: UO-31; assay: Growth inhibition of human UO31 cells after 48 hrs by cell counting analysis; details: at 10 µM
[47] = test system: PC-3; assay: Growth inhibition of human PC3 cells after 48 hrs by cell counting analysis; details: at 10 µM
[48] = test system: MCF7; assay: Growth inhibition of human MCF7 cells after 48 hrs by cell counting analysis; details: at 10 µM
[49] = test system: MDA-MB-231; assay: Growth inhibition of human MDA-MB-231 cells after 48 hrs by cell counting analysis; details: at 10 µM
[50] = test system: BT-549; assay: Growth inhibition of human BT549 cells after 48 hrs by cell counting analysis; details: at 10 µM
[51] = test system: T47D; assay: Growth inhibition of human T47D cells after 48 hrs by cell counting analysis; details: at 10 µM
[52] = test system: MDA-MB-468; assay: Growth inhibition of human MDA-MB-468 cells after 48 hrs by cell counting analysis; details: at 10 µM
[53] = test system: MOLT-4; assay: Growth inhibition of human MOLT4 cells after 48 hrs by cell counting analysis; details: at 10 µM
[54] = test system: HCT-116; assay: Growth inhibition of human HCT116 cells after 48 hrs by cell counting analysis; details: at 10 µM
[55] = Antiproliferative activity against human leukemia cells after 48 hrs by cell counting analysis
[56] = Antiproliferative activity against human non-small cell lung cancer cells after 48 hrs by cell counting analysis; details: Cancer cell lines
[57] = Antiproliferative activity against human colon cancer cells after 48 hrs by cell counting analysis; details: Cancer cell lines
[58] = Antiproliferative activity against human CNS cancer cells after 48 hrs by cell counting analysis; details: Cancer cell lines
[59] = Antiproliferative activity against human melanoma cells after 48 hrs by cell counting analysis
[60] = Antiproliferative activity against human ovarian cancer cells after 48 hrs by cell counting analysis; details: Cancer cell lines
[61] = Antiproliferative activity against human renal cancer cells after 48 hrs by cell counting analysis; details: Cancer cell lines
[62] = Antiproliferative activity against human prostate cancer cells after 48 hrs by cell counting analysis; details: Cancer cell lines
[63] = Antiproliferative activity against human breast cancer cells after 48 hrs by cell counting analysis; details: Cancer cell lines
[64] = read-out: LC50 (the source's name)

## O=C(CN1CCN(c2ccccc2)CC1)Nc1nc(-c2ccc(Cl)cc2)cs1
[1]
  growth inhibition (GI): <10%
[2]
  growth inhibition (GI): <10%
[3]
  growth inhibition (GI): <10%
[4]
  growth inhibition (GI): <10%
[5]
  growth inhibition (GI): <10%
[6]
  growth inhibition (GI): <10%
[7]
  growth inhibition (GI): <10%
[8]
  growth inhibition (GI): 12.7%
[9]
  growth inhibition (GI): 60.2%
[10]
  growth inhibition (GI): <10%
[11]
  growth inhibition (GI): <10%
[12]
  growth inhibition (GI): <10%
[13]
  growth inhibition (GI): <10%
[14]
  growth inhibition (GI): <10%
[15]
  growth inhibition (GI): <10%
[16]
  growth inhibition (GI): <10%
[17]
  growth inhibition (GI): <10%
[18]
  growth inhibition (GI): <10%
[19]
  growth inhibition (GI): <10%
[20]
  growth inhibition (GI): <10%
[21]
  growth inhibition (GI): <10%
[22]
  growth inhibition (GI): <10%
[23]
  growth inhibition (GI): <10%
[24]
  growth inhibition (GI): <10%
[25]
  growth inhibition (GI): <10%
[26]
  growth inhibition (GI): <10%
[27]
  growth inhibition (GI): <10%
[28]
  growth inhibition (GI): <10%
[29]
  growth inhibition (GI): <10%
[30]
  growth inhibition (GI): <10%
[31]
  growth inhibition (GI): 11.7%
[32]
  growth inhibition (GI): <10%
[33]
  growth inhibition (GI): 20.3%
[34]
  growth inhibition (GI): 10.4%
[35]
  growth inhibition (GI): <10%
[36]
  growth inhibition (GI): <10%
[37]
  growth inhibition (GI): <10%
[38]
  growth inhibition (GI): <10%
[39]
  growth inhibition (GI): <10%
[40]
  growth inhibition (GI): <10%
[41]
  growth inhibition (GI): <10%
[42]
  growth inhibition (GI): <10%
[43]
  growth inhibition (GI): <10%
[44]
  growth inhibition (GI): <10%
[45]
  growth inhibition (GI): <10%
[46]
  growth inhibition (GI): 34.4%
[47]
  growth inhibition (GI): 21.1%
[48]
  growth inhibition (GI): <10%
[49]
  growth inhibition (GI): <10%
[50]
  growth inhibition (GI): <10%
[51]
  growth inhibition (GI): 19%
[52]
  growth inhibition (GI): <10%
[53]
  growth inhibition (GI): <10%
[54]
  growth inhibition (GI): 16.4%

## O=c1[nH]cc(F)c(=O)[nH]1 [FLUOROURACIL]
[55]
  TGI: > 100 µM
[55]; [64]
  CC50: > 100 µM
[56]
  GI50: > 100 µM
  TGI: > 100 µM
[56]; [64]
  CC50: > 100 µM
[57]
  GI50: 8.4 µM
  TGI: > 100 µM
[57]; [64]
  CC50: > 100 µM
[58]
  TGI: > 100 µM
[58]; [64]
  CC50: > 100 µM
[59]
  GI50: 70.6 µM
  TGI: > 100 µM
[59]; [64]
  CC50: > 100 µM
[60]
  GI50: 61.4 µM
  TGI: > 100 µM
[60]; [64]
  CC50: > 100 µM
[61]
  GI50: 45.6 µM
  TGI: > 100 µM
[61]; [64]
  CC50: > 100 µM
[62]
  GI50: 22.7 µM
  TGI: > 100 µM
[62]; [64]
  CC50: > 100 µM
[63]
  GI50: 76.4 µM
  TGI: > 100 µM
[63]; [64]
  CC50: > 100 µM
